A word on the IC50: it is the concentration needed to halve the response being measured. A lower IC50 goes with higher potency. As a reminder, the Km is the concentration of substrate that gives half-maximal velocity.

One data set deals with T1, GST:PK50 (Trypanosoma brucei, UniProt Q26801).
T1 sequence (Q26801 1-437): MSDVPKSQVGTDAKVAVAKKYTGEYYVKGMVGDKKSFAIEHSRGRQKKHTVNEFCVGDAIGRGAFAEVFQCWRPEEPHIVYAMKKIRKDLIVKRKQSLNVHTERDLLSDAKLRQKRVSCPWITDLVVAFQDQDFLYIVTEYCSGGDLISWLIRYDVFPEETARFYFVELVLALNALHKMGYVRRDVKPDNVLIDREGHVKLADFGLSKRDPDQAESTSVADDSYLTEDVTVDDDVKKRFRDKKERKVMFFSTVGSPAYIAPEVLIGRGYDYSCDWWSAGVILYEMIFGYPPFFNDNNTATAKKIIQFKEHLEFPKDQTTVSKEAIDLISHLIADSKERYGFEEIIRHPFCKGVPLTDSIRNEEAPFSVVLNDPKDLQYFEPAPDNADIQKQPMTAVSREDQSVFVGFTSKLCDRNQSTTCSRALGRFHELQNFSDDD
As to the kind of experiment: radiometric filter plate kinase assay, [gamma-33P]ATP, 10-point dilution. The class given is biochemical.

Another data set has as its target GST:PK53 (Trypanosoma brucei, UniProt Q582J2, E440D). Particulars: ATP at its Km; peptide KKLNRTLSFAEPG; Tris-HCl pH 7.0, 1 mM MnCl2, 1% DMSO.
Substrate in the data set “purified protein”: Nc1ncnc2c1ncn2[C@@H]1O[C@H](COP(=O)(O)OP(=O)(O)OP(=O)(O)O)[C@@H](O)[C@H]1O
As to the kind of experiment: purified protein. Particulars: co-substrate peptide … varied, 15 nM enzyme, Tris-HCl pH 7.9, 3 mM MnCl2.

Consider `CN[C@@H]1C[C@H]2O[C@@](C)([C@@H]1OC)n1c3ccccc3c3c4c(c5c6ccccc6n2c5c31)C(=O)NC4` [staurosporine], for which the IC50 was determined as 216 ± 47 nM against GST:PK50 and 4.6 ± 0.3 nM at GST:PK53.

B1: GST:PK50 (Trypanosoma brucei) (protein)
chain: MSDVPKSQVGTDAKVAVAKKYTGEYYVKGMVGDKKSFAIEHSRGRQKKHTVNEFCVGDAIGRGAFAEVFQCWRPEEPHIVYAMKKIRKDLIVKRKQSLNVHTERDLLSDAKLRQKRVSCPWITDLVVAFQDQDFLYIVTEYCSGGDLISWLIRYDVFPEETARFYFVELVLALNALHKMGYVRRDVKPDNVLIDREGHVKLADFGLSKRDPDQAESTSVADDSYLTEDVTVDDDVKKRFRDKKERKVMFFSTVGSPAYIAPEVLIGRGYDYSCDWWSAGVILYEMIFGYPPFFNDNNTATAKKIIQFKEHLEFPKDQTTVSKEAIDLISHLIADSKERYGFEEIIRHPFCKGVPLTDSIRNEEAPFSVVLNDPKDLQYFEPAPDNADIQKQPMTAVSREDQSVFVGFTSKLCDRNQSTTCSRALGRFHELQNFSDDD
In the case of B1, in “purified protein”, the Km worked out at 25.7 ± 4.8 µM.

For the origin of these results see PMC2865264 (The Journal of Biological Chemistry, 2010).
